# Molecular target: KATP-channels on pancreatic beta-cells (Homo sapiens, UniProt Q09428)
# Details: by activation of KATP-channels; cited from earlier work
# Chain of KATP-channels on pancreatic beta-cells (Q09428 whole entry): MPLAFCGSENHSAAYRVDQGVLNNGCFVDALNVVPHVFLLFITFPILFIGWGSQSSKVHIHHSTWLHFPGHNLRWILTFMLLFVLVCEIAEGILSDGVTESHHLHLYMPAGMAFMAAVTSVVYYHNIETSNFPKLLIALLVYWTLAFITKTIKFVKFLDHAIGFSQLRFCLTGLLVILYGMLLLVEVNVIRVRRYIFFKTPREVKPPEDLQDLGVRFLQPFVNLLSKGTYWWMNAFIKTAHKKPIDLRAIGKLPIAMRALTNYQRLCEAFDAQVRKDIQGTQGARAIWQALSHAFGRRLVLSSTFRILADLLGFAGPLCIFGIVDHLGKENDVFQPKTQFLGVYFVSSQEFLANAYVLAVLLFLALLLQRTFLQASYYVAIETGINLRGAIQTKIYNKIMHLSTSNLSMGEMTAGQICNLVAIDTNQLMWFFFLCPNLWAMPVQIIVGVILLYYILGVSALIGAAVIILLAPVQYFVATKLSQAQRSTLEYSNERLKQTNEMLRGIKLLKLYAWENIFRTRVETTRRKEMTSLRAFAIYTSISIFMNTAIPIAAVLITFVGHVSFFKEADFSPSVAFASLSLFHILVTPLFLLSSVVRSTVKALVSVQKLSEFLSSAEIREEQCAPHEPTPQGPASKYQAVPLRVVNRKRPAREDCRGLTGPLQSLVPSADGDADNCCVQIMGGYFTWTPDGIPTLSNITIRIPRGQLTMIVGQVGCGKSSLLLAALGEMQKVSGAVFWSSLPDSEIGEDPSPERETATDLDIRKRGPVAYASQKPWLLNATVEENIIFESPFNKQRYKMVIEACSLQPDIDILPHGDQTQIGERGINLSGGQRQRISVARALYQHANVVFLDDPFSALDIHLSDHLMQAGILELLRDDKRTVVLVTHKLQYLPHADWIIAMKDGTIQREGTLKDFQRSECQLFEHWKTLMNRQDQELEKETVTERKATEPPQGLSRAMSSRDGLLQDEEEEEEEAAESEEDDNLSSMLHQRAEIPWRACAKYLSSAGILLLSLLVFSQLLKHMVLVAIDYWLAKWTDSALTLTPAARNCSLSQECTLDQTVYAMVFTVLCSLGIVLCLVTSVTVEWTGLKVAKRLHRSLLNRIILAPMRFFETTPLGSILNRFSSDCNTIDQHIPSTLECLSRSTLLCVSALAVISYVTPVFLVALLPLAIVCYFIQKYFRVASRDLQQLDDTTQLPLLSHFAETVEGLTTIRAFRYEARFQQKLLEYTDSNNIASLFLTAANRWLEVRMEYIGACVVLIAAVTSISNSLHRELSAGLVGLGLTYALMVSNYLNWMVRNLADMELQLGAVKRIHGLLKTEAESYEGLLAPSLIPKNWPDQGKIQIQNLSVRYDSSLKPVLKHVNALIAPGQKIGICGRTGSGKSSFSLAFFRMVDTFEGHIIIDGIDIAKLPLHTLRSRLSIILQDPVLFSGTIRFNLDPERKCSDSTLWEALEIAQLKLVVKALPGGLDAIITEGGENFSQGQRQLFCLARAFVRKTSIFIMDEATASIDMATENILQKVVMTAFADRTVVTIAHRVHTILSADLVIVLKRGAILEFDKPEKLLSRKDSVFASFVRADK
# Chain of KATP-channels on pancreatic beta-cells (Q14654 whole entry partner): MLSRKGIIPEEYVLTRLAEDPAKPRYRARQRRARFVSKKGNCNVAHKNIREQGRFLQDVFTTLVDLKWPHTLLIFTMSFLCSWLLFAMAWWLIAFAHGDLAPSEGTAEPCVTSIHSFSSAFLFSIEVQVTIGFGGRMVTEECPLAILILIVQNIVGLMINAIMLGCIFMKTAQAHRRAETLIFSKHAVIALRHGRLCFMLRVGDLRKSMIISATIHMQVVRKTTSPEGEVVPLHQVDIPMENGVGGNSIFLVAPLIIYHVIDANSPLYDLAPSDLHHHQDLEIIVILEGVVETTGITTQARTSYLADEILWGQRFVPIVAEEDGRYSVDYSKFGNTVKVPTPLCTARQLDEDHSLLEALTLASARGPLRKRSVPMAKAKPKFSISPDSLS
row,Structure (SMILES),insulin release
1,"CC1=Nc2ccc(Cl)cc2S(=O)(=O)N1 [diazoxide, 7-chloro-3-methyl-2H-1,2,4-benzothiadiazine 1,1-dioxide]",inhibit insulin release

# Tested on: not given
# Details: not given
row,melting point [°C],Structure (SMILES)
1,181 to 181.5,"C[C@@H](NC(Nc1cc(C(F)(F)F)cc(C(F)(F)F)c1)=C(C#N)S(C)(=O)=O)C(C)(C)C [Example 21, (R)-3-[3,5-bis(trifluoromethyl)phenylamino]-2-methanesulfonyl-3-(1,2,2-trimethylpropylamino)-2-propenenitrile]"
2,205 to 207,"CCC(C)(C)NC(Nc1cc(C(F)(F)F)cc(C(F)(F)F)c1)=C(C#N)S(=O)(=O)c1ccc(Cl)cc1 [Example 17, 3-[3,5-Bis(trifluoromethyl)phenylamino]-2-(4-chlorophenylsulfonyl)-3-(1,1-dimethylpropylamino)-2-propenenitrile]"
3,184.5 to 188.5,"CC(NC(Nc1cc(C(F)(F)F)cc(C(F)(F)F)c1)=C(C#N)S(C)(=O)=O)C(C)(C)C (centres unmarked) [Example 9, 3-(3,5-Bis(trifluoromethyl)phenylamino)-2-methylsulfonyl-3-(1,2,2-trimethylpropylamino)-propenenitrile]"
4,169 to 170,"CCC(C)(C)NC(Nc1ccc2c(c1)OCO2)=C(C#N)S(=O)(=O)c1ccc(Cl)cc1 [Example 27, 3-(Benzo[1,3]dioxol-5-ylamino)-3-(1,1-dimethyl-propylamino)-2-(4-chloro-phenylsulfonyl)-propenenitrile]"
5,197 to 198.5,"CC(C)NC(Nc1cc(C(F)(F)F)cc(C(F)(F)F)c1)=C(C#N)S(=O)(=O)c1ccc(Cl)cc1 [Example 3, 3-[3,5-Bis(trifluoromethyl)phenylamino]-2-(4-chlorophenylsulfonyl)-3-isopropylamino-2-propenenitrile]"
6,112 to 114,"CCC(C)(C)NC(Nc1ccc2ncsc2c1)=C(C#N)S(C)(=O)=O [Example 35, 3-(Benzothiazol-6-ylamino)-3-(1,1-dimethyl-propylamino)-2-methylsulfonyl-propenenitrile]"
7,177.5 to 179,"COc1cc(NC(NC(C)C(C)(C)C)=C(C#N)S(=O)(=O)c2ccc(Cl)cc2)cc(OC)c1 (centres unmarked) [Example 10, 2-(4-Chlorophenylsulfonyl)-3-(3,5-dimethoxyphenylamino)-3-(1,2,2-trimethylpropylamino)-2-propenenitrile]"
8,155.5 to 158.5,"CC(NC(Nc1cc(C(F)(F)F)cc(C(F)(F)F)c1)=C(C#N)S(=O)(=O)c1ccc(Cl)cc1)C(C)(C)C (centres unmarked) [Example 1, 3-[3,5-bis(trifluoromethyl)phenylamino]-2-(4-chlorophenylsulfonyl)-3-(1,2,2-trimethylpropylamino)-2-propenenitrile]"
9,189.5,"N#CC(=C(Nc1ccc2c(c1)OCO2)NC1CCC1)S(=O)(=O)c1ccc(Cl)cc1 [Example 28, 3-(Benzo[1,3]dioxol-5-ylamino)-3-cyclobutylamino-2-(4-chloro-phenylsulfonyl)-propenenitrile]"
10,150 to 152,"CCC(C)NC(Nc1cc(Cl)cc(Cl)c1)=C(C#N)S(=O)(=O)c1ccc(Cl)cc1 (centres unmarked) [Example 31, 3-sec-Butylamino-2-(4-chlorophenylsulfonyl)-3-(3,5-dichlorophenylamino)-2-propenenitrile]"
11,199 to 200,"N#CC(=C(Nc1cc(C(F)(F)F)cc(C(F)(F)F)c1)NC1CCCC1)S(=O)(=O)c1ccc(Cl)cc1 [Example 2, 3-[3,5-Bis(trifluoromethyl)phenylamino]-2-(4-chlorophenylsulfonyl)-3-cyclopentylamino2-propenenitrile]"
12,163 to 169,"CC(NC(Nc1cc(Cl)cc(Cl)c1)=C(C#N)S(=O)(=O)c1ccc(Cl)cc1)C(C)(C)C (centres unmarked) [Example 7, 2-(4-Chlorophenylsulfonyl)-3-(3,5-dichlorophenylamino)-3-(1,2,2-trimethylpropylamino)-2-propenenitrile]"
13,161 to 165,"CCC(C)(C)NC(Nc1ccc2c(c1)OCO2)=C(C#N)C(=O)C(C)(C)C [Example 36, 3-(Benzo[1,3]dioxol-5-ylamino)-2-(2,2-dimethyl-propionyl)-3-(1,1-dimethyl-propylamino)-propenenitrile]"
14,190.5 to 193,"N#CC(=C(Nc1cc(C(F)(F)F)cc(C(F)(F)F)c1)NC1CCC1)S(=O)(=O)c1ccc(Cl)cc1 [Example 4, 3-[3,5-Bis(trifluoromethyl)phenylamino]-2-(4-chlorophenylsulfonyl)-3-cyclobutylamino-2-propenenitrile]"
15,160.5 to 161.5,"CC(NC(Nc1ccc(Cl)cc1)=C(C#N)S(C)(=O)=O)C(C)(C)C (centres unmarked) [Example 34, 3-(4-Chlorophenylamino)-2-methylsulfonyl-3-(1,2,2-trimethylpropylamino)-acrylonitrile]"
16,163.5 to 164.5,"COc1cc(NC(NC2CCC2)=C(C#N)S(=O)(=O)c2ccc(Cl)cc2)cc(OC)c1 [Example 24, 2-(4-Chlorophenylsulfonyl)-3-(3,5-dimethoxyphenylamino)3cyclobutylamino-2-propenenitrile]"
17,189 to 190,"CCC(C)(C)NC(Nc1cc(OC)cc(OC)c1)=C(C#N)S(=O)(=O)c1ccc(Cl)cc1 [Example 23, 2-(4-Chlorophenylsulfonyl)-3-(3,5-dimethoxyphenylamino)-3-(1,1-dimethylpropylamino)-2-propenenitrile]"
18,164 to 165,"C[C@@H](NC(Nc1cc(C(F)(F)F)cc(C(F)(F)F)c1)=C(C#N)S(=O)(=O)c1ccc(Cl)cc1)C(C)(C)C [Example 19, (R)-3-[3,5-bis(trifluoromethyl)phenylamino]-2-(4-chlorophenylsulfonyl)-3-(1,2,2-trimethylpropylamino)-2-propenenitrile]"
19,188.5 to 191,"CC(C)NC(Nc1cc(C(F)(F)F)cc(C(F)(F)F)c1)=C(C#N)S(C)(=O)=O [Example 20, 3-(3,5-Bis(trifluoromethyl)phenylamino)-3-isopropylamino-2-methylsulfonyl-propenenitrile]"
20,183 to 185,"CC(NC(Nc1cc(F)cc(C(F)(F)F)c1)=C(C#N)S(C)(=O)=O)C(C)(C)C (centres unmarked) [Example 33, 3-(3-Fluoro-5trifluoromethyl-phenylamino)-2-methylsulfonyl-3-(1,2,2-trimethylpropylamino)-propenenitrile]"
21,180.5 to 181.5,"C[C@H](NC(Nc1cc(C(F)(F)F)cc(C(F)(F)F)c1)=C(C#N)S(C)(=O)=O)C(C)(C)C [Example 22, (S)-3-[3,5-bis(trifluoromethyl)phenylamino]-2-methanesulfonyl-3-(1,2,2-trimethylpropylamino)-2-propenenitrile]"
22,151.5 to 154,"CC(NC(=C(C#N)S(=O)(=O)c1ccc(Cl)cc1)N(C)c1cc(C(F)(F)F)cc(C(F)(F)F)c1)C(C)(C)C (centres unmarked) [Example 11, 3-[N-(3,5-bis(trifluoromethyl)phenyl)-N-methylamino]-2-(4-chlorophenylsulfonyl)-3-(1,2,2-trimethylpropylamino)-2-propenenitrile]"
23,196.5 to 198.5,"CCCNC(Nc1cc(C(F)(F)F)cc(C(F)(F)F)c1)=C(C#N)S(=O)(=O)c1ccc(Cl)cc1 [Example 5, 3-[3,5-Bis(trifluoromethyl)phenylamino]-2-(4-chlorophenylsulfonyl)-3-propylamino2-propenenitrile]"

# Tested on: obese zucker rats
# Details: cited from earlier work
Structure (SMILES),glucose tolerance,insulin receptor binding,insulin secretion,weight gain
"CC1=Nc2ccc(Cl)cc2S(=O)(=O)N1 [diazoxide, 7-chloro-3-methyl-2H-1,2,4-benzothiadiazine 1,1-dioxide]",improve glucose tolerance,increase insulin receptor binding,decrease insulin secretion,decrease weight gain

# Tested on: BB-rats
# Details: cited from earlier work
row,Structure (SMILES),onset of diabetes
1,"CC1=Nc2ccc(Cl)cc2S(=O)(=O)N1 [diazoxide, 7-chloro-3-methyl-2H-1,2,4-benzothiadiazine 1,1-dioxide]",delay the onset of diabetes
